According to US20120282358A1, “ORAL ADMINISTRATION COMPOSITION” (UNITIKA LTD., priority 2007, published 2012):

What was measured:
[1] = test system: Female mice of KK-Ay/TacJc1 line (diabetes mellitus type II model animal); experiment: Test Example 1-2: KK-Ay mice on high fat feed, 4 weeks; body weight, triglyceride, abdominal white fat tissue weight; type: in vivo; settings: 29th day; in comparison with Comparative Example 1-2 and Comparative Example 1-4; FIG. 9
Excerpt: Female mice of KK-Ay/TacJc1 line (6 weeks of age, manufactured by CLEA Japan Inc.), established as a diabetes mellitus type II model animal, were divided into groups of 6 animals per group, and β-cryptoxanthin (95% in purity, manufactured by SHIKOKU YASHIMA PURE CHEMICALS CO., LTD.) and glucosylceramide (3% in purity, konnyaku ceramide manufactured by UNITIKA, LTD.) were mixed with a high fat feed, at the ratios of 0.2% and 4% respectively, and subjected to free ingestion together with water. As the control group, tests were carried out by providing the mice with a high fat feed (CLEA Rodent Diet Quick Fat, manufactured by CLEA Japan Inc) to which nothing was added (Comparative Example 1-2), the high fat feed to which 0.2% of β-cryptoxanthin alone was added (Comparative Example 1-3) and the high fat feed to which 4% of glucosylceramide alone was added (Comparative Example 1-4).
The administration was carried out for 4 weeks, and body weight and triglyceride content were measured before the administration and on the 7th, 14th, 21st and 28th days after the administration. In addition, the mice were sacrificed on the 29th day after the commencement of administration, and the visceral fats, namely abdominal white fat tissues, were collected and their weights were compared. The results are shown in FIG. 7, FIG. 8 and FIG. 9, respectively.

[2] = test system: Female mice of KK-Ay/TacJc1 line (diabetes mellitus type II model animal); experiment: Test Examples 2-1, 2-2, 2-3: KK-Ay mice on high fat feed, 4 weeks; body weight, blood triglyceride, visceral white fat tissue mass; type: in vivo; settings: for mass of visceral fat (abdominal white fat tissue): 29th day after commencement of administration; for mass of visceral fat (abdominal white fat tissue) / triglyceride content in blood: in comparison with control group; for change in body weight / triglyceride content in blood: mixed in high fat feed, 4 weeks; for change in body weight: measured on 7th, 14th, 21st, 28th days, in comparison with control group (high fat feed alone); for triglyceride content in blood: Triglyceride E-test Wako
Method: Female mice of KK-Ay/TacJc1 line (6 weeks of age: manufactured by CLEA Japan Inc.), established as a diabetes mellitus type II model animal, were divided into groups of 6 animals per group, and the composition obtained in Example 1 was mixed with a high fat feed at a ratio of 4% and subjected to free ingestion together with water. The high fat feed alone was allowed to be ingested by the control group.
The administration was carried out for 4 weeks, and the body weight was measured before the administration and on the 7th, 14th, 21st and 28th days after the administration.
Simultaneously with the measurement of body weights of the mice used in Test Example 1-1, blood collection was carried out and the triglyceride content in blood was measured using Triglyceride E-test Wako (manufactured by Wako Pure Chemical Industries, Ltd.) The result is shown in FIG. 11.
The mice used in Test Example 2-1 were sacrificed on the 29th day after commencement of the administration, and collection of the visceral fat, namely white fat tissue, was carried out to compare their mass.

[3] = Applicant's own test of β-cryptoxanthin alone for obesity prevention / fat reduction; settings: no details given

Compound | abdominal fat tissue weight [1] | mass of visceral fat (abdominal white fat tissue) [2] | change in body weight [2] | triglyceride content in blood [2] | action by individual use (obesity prevention / fat reduction) [3]
CC1=C(/C=C/C(C)=C/C=C/C(C)=C/C=C/C=C(C)/C=C/C=C(C)/C=C/C2=C(C)C[C@@H](O)CC2(C)C)C(C)(C)CCC1 [Comparative Example 1-3, β-cryptoxanthin] | significantly reduced |  |  |  | 
CC1=C(/C=C/C(C)=C/C=C/C(C)=C/C=C/C=C(C)/C=C/C=C(C)/C=C/C2=C(C)C[C@@H](O)CC2(C)C)C(C)(C)CCC1 [Comparative Example 3, β-cryptoxanthin] |  | significantly reduced | significantly reduced on the 28th day | significantly reduced on the 21st and 28th days | 
CC1=C(/C=C/C(C)=C/C=C/C(C)=C/C=C/C=C(C)/C=C/C=C(C)/C=C/C2=C(C)C[C@@H](O)CC2(C)C)C(C)(C)CCC1 [β-cryptoxanthin] |  |  |  |  | weak
a-glycosylhesperidin [Comparative Example 4] |  | reduction of the visceral fat was not found | significant difference was not found | significant difference was not found | 
